Tests used:
Assay in all cases: relative viability (nuclei count vs DMSO), 5 days (fraction); higher = more cells survive
NCI-H3122 = system: NCI-H3122
In short: (§1)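 A single step with final 0.05% Triton X-100, 1% formaldehyde and 1 ug/ml Hoechst fixed the cells and stained nuclei 5 days after treatment. Lung cancer cell lines in 1536-well plates had been treated by pin tool the day after seeding with one drug alone or a fixed anchor-drug dose plus five library-drug doses (not always all listed) in √10 steps, and nuclei were counted on 4× images. Relative viability is the ratio of nuclei in treated wells to nuclei in vehicle wells, taken as the median of duplicate plates.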

NCI-H2228 = system: NCI-H2228
In short: as §1

NCI-H322M = system: NCI-H322M
In short: as §1

CAL-12T = system: CAL-12T
In short: as §1

SK-LU-1 = system: SK-LU-1
In short: as §1

LCLC-97TM1 = system: LCLC-97TM1
In short: as §1

LCLC-103H = system: LCLC-103H
In short: as §1

HCC-44 = system: HCC-44
In short: as §1

NCI-H1793 = system: NCI-H1793
In short: as §1

NCI-H2087 = system: NCI-H2087
In short: as §1

NCI-H647 = system: NCI-H647
In short: as §1

201T = system: 201T
In short: as §1

RERF-LC-KJ = system: RERF-LC-KJ
In short: as §1

LXF-289 = system: LXF-289
In short: as §1

HCC-827 = system: HCC-827
In short: as §1

NCI-H1650 = system: NCI-H1650
In short: as §1

NCI-H1437 = system: NCI-H1437
In short: as §1

NCI-H727 = system: NCI-H727
In short: as §1

BEN = system: BEN
In short: as §1

NCI-H1395 = system: NCI-H1395
In short: as §1

NCI-H1944 = system: NCI-H1944
In short: as §1

NCI-H2405 = system: NCI-H2405
In short: as §1

HOP-62 = system: HOP-62
In short: as §1

CC1(C)CCC(c2ccc(Cl)cc2)=C(CN2CCN(c3ccc(C(=O)NS(=O)(=O)c4ccc(N[C@H](CCN5CCOCC5)CSc5ccccc5)c(S(=O)(=O)C(F)(F)F)c4)cc3)CC2)C1 [Navitoclax] + CC(=O)Nc1cccc(-n2c(=O)n(C3CC3)c(=O)c3c(Nc4ccc(I)cc4F)n(C)c(=O)c(C)c32)c1 [Trametinib] (partner 0.02 µM)
relative viability (NCI-H3122; first compound 0.005 µM): 0.243
relative viability (NCI-H3122; first compound 0.01581 µM): 0.221
relative viability (NCI-H3122; first compound 0.05 µM): 0.217
relative viability (NCI-H3122; first compound 0.1581 µM): 0.222
relative viability (NCI-H3122; first compound 0.5 µM): 0.211
relative viability (NCI-H2228; first compound 0.005 µM): 0.476
relative viability (NCI-H2228; first compound 0.01581 µM): 0.802
relative viability (NCI-H2228; first compound 0.1581 µM): 0.511
relative viability (NCI-H2228; first compound 0.5 µM): 0.491
relative viability (NCI-H322M; first compound 0.005 µM): 0.538
relative viability (NCI-H322M; first compound 0.01581 µM): 0.533
relative viability (NCI-H322M; first compound 0.05 µM): 0.453
relative viability (NCI-H322M; first compound 0.1581 µM): 0.484
relative viability (NCI-H322M; first compound 0.5 µM): 0.539
relative viability (CAL-12T; first compound 0.005 µM): 0.348
relative viability (CAL-12T; first compound 0.01581 µM): 0.373
relative viability (CAL-12T; first compound 0.05 µM): 0.351
relative viability (CAL-12T; first compound 0.1581 µM): 0.331
relative viability (CAL-12T; first compound 0.5 µM): 0.311
relative viability (SK-LU-1; first compound 0.005 µM): 0.716
relative viability (SK-LU-1; first compound 0.01581 µM): 0.57
relative viability (SK-LU-1; first compound 0.05 µM): 0.296
relative viability (SK-LU-1; first compound 0.1581 µM): 0.601
relative viability (SK-LU-1; first compound 0.5 µM): 0.433
relative viability (LCLC-97TM1; first compound 0.005 µM): 0.184
relative viability (LCLC-97TM1; first compound 0.01581 µM): 0.232
relative viability (LCLC-97TM1; first compound 0.05 µM): 0.186
relative viability (LCLC-97TM1; first compound 0.1581 µM): 0.211
relative viability (LCLC-97TM1; first compound 0.5 µM): 0.189
relative viability (LCLC-103H; first compound 0.005 µM): 0.637
relative viability (LCLC-103H; first compound 0.01581 µM): 0.731
relative viability (LCLC-103H; first compound 0.05 µM): 0.704
relative viability (LCLC-103H; first compound 0.1581 µM): 0.691
relative viability (LCLC-103H; first compound 0.5 µM): 0.685
relative viability (HCC-44; first compound 0.005 µM): 1.1
relative viability (HCC-44; first compound 0.01581 µM): 1.05
relative viability (HCC-44; first compound 0.05 µM): 0.94
relative viability (HCC-44; first compound 0.1581 µM): 1.05
relative viability (HCC-44; first compound 0.5 µM): 1.11
relative viability (NCI-H1793; first compound 0.005 µM): 0.373
relative viability (NCI-H1793; first compound 0.01581 µM): 0.439
relative viability (NCI-H1793; first compound 0.1581 µM): 0.467
relative viability (NCI-H1793; first compound 0.5 µM): 0.402
relative viability (NCI-H2087; first compound 0.005 µM): 0.177
relative viability (NCI-H2087; first compound 0.01581 µM): 0.194
relative viability (NCI-H2087; first compound 0.1581 µM): 0.145
relative viability (NCI-H2087; first compound 0.5 µM): 0.151
relative viability (NCI-H647; first compound 0.005 µM): 0.345
relative viability (NCI-H647; first compound 0.01581 µM): 0.521
relative viability (NCI-H647; first compound 0.05 µM): 0.331
relative viability (NCI-H647; first compound 0.1581 µM): 0.534
relative viability (NCI-H647; first compound 0.5 µM): 0.408
relative viability (201T; first compound 0.005 µM): 0.715
relative viability (201T; first compound 0.01581 µM): 0.784
relative viability (201T; first compound 0.05 µM): 0.741
relative viability (201T; first compound 0.1581 µM): 0.7
relative viability (201T; first compound 0.5 µM): 0.726
relative viability (RERF-LC-KJ; first compound 0.005 µM): 0.823
relative viability (RERF-LC-KJ; first compound 0.01581 µM): 0.847
relative viability (RERF-LC-KJ; first compound 0.05 µM): 0.969
relative viability (RERF-LC-KJ; first compound 0.1581 µM): 0.938
relative viability (RERF-LC-KJ; first compound 0.5 µM): 0.985
relative viability (LXF-289; first compound 0.005 µM): 0.649
relative viability (LXF-289; first compound 0.01581 µM): 0.709
relative viability (LXF-289; first compound 0.05 µM): 0.633
relative viability (LXF-289; first compound 0.1581 µM): 0.69
relative viability (LXF-289; first compound 0.5 µM): 0.692
relative viability (HCC-827; first compound 0.005 µM): 0.528
relative viability (HCC-827; first compound 0.01581 µM): 0.567
relative viability (HCC-827; first compound 0.05 µM): 0.446
relative viability (HCC-827; first compound 0.1581 µM): 0.514
relative viability (HCC-827; first compound 0.5 µM): 0.55
relative viability (NCI-H1650; first compound 0.005 µM): 0.646
relative viability (NCI-H1650; first compound 0.01581 µM): 0.723
relative viability (NCI-H1650; first compound 0.05 µM): 0.489
relative viability (NCI-H1650; first compound 0.1581 µM): 0.439
relative viability (NCI-H1650; first compound 0.5 µM): 0.45
relative viability (NCI-H1437; first compound 0.005 µM): 0.476
relative viability (NCI-H1437; first compound 0.01581 µM): 0.595
relative viability (NCI-H1437; first compound 0.05 µM): 0.359
relative viability (NCI-H1437; first compound 0.1581 µM): 0.472
relative viability (NCI-H1437; first compound 0.5 µM): 0.539
relative viability (NCI-H727; first compound 0.005 µM): 0.406
relative viability (NCI-H727; first compound 0.01581 µM): 0.393
relative viability (NCI-H727; first compound 0.05 µM): 0.378
relative viability (NCI-H727; first compound 0.1581 µM): 0.399
relative viability (NCI-H727; first compound 0.5 µM): 0.403
relative viability (BEN; first compound 0.005 µM): 1.07
relative viability (BEN; first compound 0.01581 µM): 1.18
relative viability (BEN; first compound 0.05 µM): 0.94
relative viability (BEN; first compound 0.1581 µM): 1.05
relative viability (BEN; first compound 0.5 µM): 0.669
relative viability (NCI-H1395; first compound 0.005 µM): 1.03
relative viability (NCI-H1395; first compound 0.01581 µM): 1.17
relative viability (NCI-H1395; first compound 0.05 µM): 1.01
relative viability (NCI-H1395; first compound 0.1581 µM): 1.13
relative viability (NCI-H1395; first compound 0.5 µM): 1.04
relative viability (NCI-H1944; first compound 0.005 µM): 0.414
relative viability (NCI-H1944; first compound 0.01581 µM): 0.407
relative viability (NCI-H1944; first compound 0.1581 µM): 0.422
relative viability (NCI-H1944; first compound 0.5 µM): 0.373
relative viability (NCI-H2405; first compound 0.005 µM): 0.535
relative viability (NCI-H2405; first compound 0.01581 µM): 0.75
relative viability (NCI-H2405; first compound 0.05 µM): 0.67
relative viability (NCI-H2405; first compound 0.1581 µM): 0.596
relative viability (NCI-H2405; first compound 0.5 µM): 0.661
relative viability (HOP-62; first compound 0.005 µM): 0.377
relative viability (HOP-62; first compound 0.01581 µM): 0.404
relative viability (HOP-62; first compound 0.05 µM): 0.362
relative viability (HOP-62; first compound 0.1581 µM): 0.365
relative viability (HOP-62; first compound 0.5 µM): 0.39
